# Assay results as given in article PMC7753357, “Population Pharmacokinetics and Model-Based Dosing Optimization of Teicoplanin in Pediatric Patients” (Frontiers in Pharmacology, 2020).
# “And” between values parts separate entries of the source, which are not always exact repeats. Identical values can stand only once. Like-named read-outs stand apart in the source and are kept apart here.
# Key:
# [1] = Nephrotoxicity and adverse events in patients; assay type: in vivo, human; settings: all after the last sample was collected
# [2] = cited from earlier work
# Excerpt: Supplement table1.docx, table 1: TABLE S1 Pharmacokinetic Study of teicoplanin in pediatric patients. | column: Clearance (CL) , L/h; Volume of distribution (Vd) , L || Teicoplanin is a glycopeptide antibiotic with activity against methicillin-resistant Staphylococcus aureus (MRSA) ([Traina and Bonati, 1984]). […] Teicoplanin trough concentration (C min) is closely associated with clinical efficacy. […] Due to widespread systemic inflammation, patients may often have an ARC in PICU patients ([Van Der Heggen et al., 2019]), and increased volume ... || (+ 2 further places)
# [3] = Serum teicoplanin concentrations (TDM and opportunistic samples, HPLC); assay type: in vivo, human; settings: SD
# Experimental: (§1) Teicoplanin was administered at three loading doses of 10 mg/kg every 12 h, followed by 6–10 mg/kg/day. Types of blood samples included therapeutic drug monitoring (TDM) sample, and opportunistic sample. TDM was typically performed within 30 min preceding a dose at steady state. Samples were centrifuged for 10 min. Serum was separated and stored at −80°C until analysis. The laboratory staff were allowed to identify the opportunistic samples with the timings of blood taking documented and store them at −80°C after routine testing and pretreatment. Teicoplanin concentrations were determined with a validated high performance liquid chromatography method. The calibration curve ranged from 2.5 to 100 mg/L, and lower limit of […] (LLOQ) of this assay was 2.5 mg/L. Intra- and inter-day precision values were 3.5 and 6.2%, respectively ([Wang et al., 2015]). For the samples below the LLOQ, concentration values were recorded as LLOQ of 2.5 mg/L.
# [4] = cited from earlier work; remark: listed apart in the source
# Excerpt: Teicoplanin is a glycopeptide antibiotic with activity against methicillin-resistant Staphylococcus aureus (MRSA) ([Traina and Bonati, 1984]). […] Teicoplanin trough concentration (C min) is closely associated with clinical efficacy. For the moderate (such as respiratory tract infections, urinary tract infections and skin and soft-tissue infections) and severe infection (such as sepsis, infective endocarditis, bone an ... || There are large differences in the optimal dosage regimens provided by the two methods (Table 3). Taken together, optimal dosage regimens based on the C min targets in our study are recommended, which are three loading doses of 10 mg/kg every 12 h, followed by a maintenance dose of 12 mg/kg/day for C min of > 10 mg/L and three loading doses of 13 mg/kg every 12 h, followed by a maintenance dose of 16 mg/kg/day for C min of > 15 mg/L. The reasons are as follows: 1) The maintenance dose based on the C min targets are higher than that based PK/PD targets. In other words, maintenance dose based on ...
# [5] = Population pharmacokinetic analysis (NONMEM, one-compartment model) in hospitalized children; assay type: in vivo, human
# Excerpt: This was a retrospective PK study performed in two hospitals in China according to the principles of the current Declaration of Helsinki and Good Clinical Practice (Hospital 1: the First Affiliated Hospital of Xi’an Jiaotong University; Hospital 2: the Affiliated Children Hospital of Xi’an Jiaotong University). The protocol was approved by the institutional review board of each study site (No.XJTU1AF2017LSK-28). All patients aged 1 month to 18 years old receiving teicoplanin (Targocid, Sanofi-Aventis) for proven or suspected MRSA infection were selected for the study over 33-month period (March 2017 and November 2019). Children were excluded if a complete teicoplanin dosing history or precise sampling time was not available. The demographic variables with potential impact on the PK of teicoplanin and details of teicoplanin administration (dose and infusion start and stop times) were extracted from medical records retrospectively by a trained research assistant. If serum creatinine (SCr) readings were unavailable around the teicoplanin dosing (±48 h), the closest available SCr reading would be imputed. Creatinine clearance (CLcr) was estimated by Cockcroft formula: CLcr = (140 – age (years)) ×weight (WT, kg) × 0.85 (if female)/0.818 × SCr (μmol/L), instead of Schwartz formula due to the lack of height data in most children ([Cockcroft and Gault, 1976]).
# as §1
# Population pharmacokinetic (PPK) analysis was performed using NONMEM (version 7.2). A one-compartment PK model with first-order elimination (ADVAN1 TRANS2) was implemented. The concentration-time data for teicoplanin were modeled by first-order conditional estimation with interaction (FOCE-I). We evaluated inter-individual variability using an exponential error model. Residual variability was selected from additive, proportional, exponential, and combined additive and proportional error models according to acceptable standard errors, physiological plausibility of population clearance (CL) and distribution volume (Vd) estimates, improvement of the objective function value (OFV) and good visual representation of standard diagnostic plots. Demographic characteristics (age, gender, WT), renal functions (blood urea nitrogen, SCr, CLcr), biochemical data (total protein, albumin), status of disease (sepsis, endocarditis), and nephrotoxic medications received during teicoplanin therapy were investigated as potential variables on PK parameters. CLcr was calculated by the Cockcroft formula ([Cockcroft and Gault, 1976]). […]
# [6] = ref Lukas et al., 2004; cited from earlier work
# Excerpt: (§2) Teicoplanin is a glycopeptide antibiotic with activity against methicillin-resistant Staphylococcus aureus (MRSA) ([Traina and Bonati, 1984]). […] Teicoplanin trough concentration (C min) is closely associated with clinical efficacy. For the moderate (such as respiratory tract infections, urinary tract infections and skin and soft-tissue infections) and severe infection (such as sepsis, infective endocarditis, bone an ...
# albumin = settings: ref Lukas et al., 2004; cited from earlier work
# Excerpt: as §2
# [7] = ref Svetitsky et al., 2009; cited from earlier work
# Experimental: There are large differences in the optimal dosage regimens provided by the two methods (Table 3). Taken together, optimal dosage regimens based on the C min targets in our study are recommended, which are three loading doses of 10 mg/kg every 12 h, followed by a maintenance dose of 12 mg/kg/day for C min of > 10 mg/L and three loading doses of 13 mg/kg every 12 h, followed by a maintenance dose of 16 mg/kg/day for C min of > 15 mg/L. The reasons are as follows: 1) The maintenance dose based on the C min targets are higher than that based PK/PD targets. In other words, maintenance dose based on ...
# [8] = most recent study in Chinese children, ref Gao et al., 2020
substance,measurement,setting,value
Teicoplanin,Children who developed nephrotoxicity during hospitalization,[1],Nine
same,Mean C min,"[2]; 24 h after the first dose, ref Sanchez et al., 1999",4800 ng/mL
same,Mean C min,"[2]; 72 h after the first dose, ref Sanchez et al., 1999",5700 ng/mL
same,Mean C min,"[2]; 168 h after the first dose, ref Sanchez et al., 1999",5900 ng/mL
same,CL,"[2]; PICU Caucasians, ref Aarons et al., 1998, Lukas et al., 2004, Ramos-Martin et al., 2014, Reed et al., 1997, Sanchez et al., 1999, Terragna et al., 1988, Zhao et al., 2015",0.5 to 1.23 mL/min/kg
same,Volume of distribution (Vd),"[2]; children, n=39, England, FPIA, ref Ramos-Martin (2014)",4.138 L
same,Q,"[2]; children, n=136, China, population PK, ref Gao (2020)",0.23 L/h
same,Vd in other studies,"[2]; children, ref Supplementary Table S1",0.2 to 1.02 L/kg
same,CL estimate,[2]; [8],0.217 mL/min/kg
same,Vd,[2]; [8],1.85 L/kg
same,CL,"[2]; non-PICU Caucasians, ref Aarons et al., 1998, Lukas et al., 2004, Ramos-Martin et al., 2014, Reed et al., 1997, Sanchez et al., 1999, Terragna et al., 1988, Zhao et al., 2015",0.25 to 0.4 mL/min/kg
same,Proportion of children failing to achieve the target C min,"[2]; previous clinical studies, ref Sanchez et al., 1999, Strenger et al., 2013, Zhao et al., 2015",48–89%
same,CL in children,"[2]; ref Aarons et al., 1998, Lukas et al., 2004, Ramos-Martin et al., 2014, Reed et al., 1997, Sanchez et al., 1999, Terragna et al., 1988, Zhao et al., 2015",0.25 to 1.23 mL/min/kg
same,Overall mean C min,"[2]; ref Lukas et al., 2004",9000 ng/mL
same,Vd,"[2]; ref Ramos-Martin et al., 2014",0.2 L/kg
same,C min achieved with current maintenance doses in another study,"[2]; ref Sanchez et al., 1999",4800 to 5900 ng/mL
same,CL,"[2]; two studies in patients admitted to the PICU, ref Reed et al., 1997, Sanchez et al., 1999",0.75 mL/min/kg and 0.5 mL/min/kg
same,"Teicoplanin concentration, mean ± standard deviation","[3]; Hospital 1, n=13, 21 samplings",9.3 ± 10.1 mg/L
same,"Teicoplanin concentration, mean ± standard deviation","[3]; Hospital 2, n=212, 304 samplings",9.1 ± 8.9 mg/L
same,"Teicoplanin concentration, mean ± standard deviation","[3]; model evaluation data, n = 66, 89 samplings",9.6 ± 5.6 mg/L
same,"Teicoplanin concentration, mean ± standard deviation","[3]; model-building data, n = 159, 236 samplings, HPLC, LLOQ 2.5 mg/L",8.6 ± 12.1 mg/L
same,Elimination half-life compared with vancomycin,"[4]; ref Kasai et al., 2018",longer elimination half-life than vancomycin
same,Linearity of PK,"[4]; ref Rowland, 1990",linear PK
same,CL in adults,"[4]; seven out of ten of the CL reported, ref Byrne et al., 2018, Cazaubon et al., 2017, Kasai et al., Lamont et al., 2005, Soy et al., 2006, Yamada et al., 2012, Yu et al., 1995",lower than 0.01 L/h/kg
same,"Vd, mean of 1,000 bootstrap replicates",[5]; bootstrap,1.77 L
same,"CL, mean of 1,000 bootstrap replicates",[5]; bootstrap success rate 96.5%,0.0718 L/h
same,"Vd, final model estimate","[5]; population PK, one-compartment, Vd=1.39×θ3(WT/16.71)",1.39 L
same,Estimate of Vd per kg,[5]; this study,0.15 L/kg
same,Typical population value of CL per kg,[5]; this study,0.233 mL/min/kg
same,Hydrophilicity of the marketed drug,[6],hydrophilic
same,Bound to albumin in plasma,albumin,> 90%
same,Adverse events compared with vancomycin,[7],lower adverse event compared with vancomycin
